Values after ≈ are worked out from the molar mass of the structure shown. Each block holds one compound with its values, some of them ahead of it.
Legend:
[1] = In vitro dissolution in snapwells, mean dissolution time (MDT); assay type: physicochemical
Method: Dissolution was performed at 37° C. in snapwells (6.5 mm diameter polycarbonate membrane with a pore size of 0.4 μm). […] Samples were taken every hour (0.1 mL withdrawn and replaced with warm buffer).
Dissolution is performed at 37° C. in snapwells (6.5 mm diameter polycarbonate membrane with a pore size of 0.4 μm), 0.2 mL of a gel formulation described herein is placed into snapwell and left to harden, then 0.5 mL buffer is placed into reservoir and shaken using a Labline orbit shaker at 70 rpm. Samples are taken every hour (0.1 mL withdrawn and replace with warm buffer). […] Pluronic concentration is analyzed at 624 nm using the cobalt thiocyanate method.
The mean dissolution time (MDT) is the sum of different periods of time the drug molecules stay in the matrix before release, divided by the total number of molecules and is optionally calculated by:
Dissolution was performed at 37° C. in snapwells (6.5 mm diameter polycarbonate membrane with a pore size of 0.4 μm), 0.2 mL of formulation was placed into snapwell and left to harden, then 0.5 mL of 0.9% saline was placed into reservoir and shaken using a Labline orbit shaker at 70 rpm. Samples were taken every hour (0.1 mL withdrawn and replace with warm buffer). Samples analyzed for dexamethasone and ciprofloxacin concentration by UV at 245 and 270 nm, respectively using a Evolution 160 UV/Vis spectrophotometer (Thermo Scientific). Quantitation performed against an external calibration standard.
Dissolution was performed at 37° C. in snapwells (6.5 mm diameter polycarbonate membrane with a pore size of 0.4 μm), 0.2 mL of gel was placed into snapwell and left to harden, 0.5 mL of 0.9% saline was placed into reservoir and shaken using a Labline orbit shaker at 70 rpm. Samples were taken every hour (All the saline withdrawn and replace with warm 0.9% saline with an osmolality of 290 mOsm). Samples were analyzed for Ciprofloxacin by HPLC.

[2] = Perilymph pharmacokinetics after intratympanic injection in guinea pigs; conditions: guinea pig, in vivo
Method: Guinea pigs were administered 50 μl via intratympanic delivery and PK in the perilymph was measured as described herein.
Female guinea pigs (Charles River) weighing 200-300 g, of approximately 6-8 weeks of age are used (N=4 per group). Prior to any procedure, animals are anesthetized using a combination of xylazine (10 mg/kg), ketamine (40 mg/kg) and acepromazine (0.75 mg/kg) for up to an hour via the intramuscular route. If needed, an intraoperative booster is administered intraperitoneally representing one-tenth of the original dose. Intratympanic injection—Each animal is positioned so that the head is tilted at an angle to favor injection towards the round window niche. Briefly, under visualization with an operating microscope, 50 μl of formulations comprising 0 to 50% active agent and varying concentrations of P407 are administered to the animals. […] During the procedure and until recovery, animals are placed on a temperature controlled (40° C.) heating pad until consciousness is regained at which time they are returned to the vivarium. Perilymph sampling procedure—The skin behind the ear of anesthetized guinea pigs is shaved and disinfected with povidone-iodine. An incision is then made behind the ear, and muscles are carefully retracted from over the bulla. […]
Determination of active agent concentrations is performed using high pressure liquid chromatography (HPLC) combined with mass spectrometry detection (MS). […] The samples are analyzed by reversed phase HPLC (1100 series, Agilent) using an Atlantis dC18 column maintained at 40° C. The mobile phase is nebulized using heating nitrogen in a Z-spray source/interface and the ionized compounds detected using MS/MS (Tandem quadrupole mass spectrometer, Quattro Ultima, Waters). Peak heights of an active agent are determined using MassLynx software (Waters). […]
Pharmacokinetic parameters are calculated using conventional noncompartmental pharmacokinetic methods. The apparent clearance (CL app) is calculated as the ratio between the administered intratympanic dose and the exposure (AUC). […]

physchem = conditions: aqueous with cosolvent or surfactant or cyclodextrin, thermodynamic from solid
Method: In addition, modifying the solubility of the active agent can also have an effect on the properties of the thermosensitive gel.
A formulation comprising 0.5% w/w SP600125 in 16% Poloxamer 407 was made by dispersing 5.3 mg of SP600125 (LC Labs) in 994.7 mg of a 16% P407 in 50 mM Tris buffer.

[3] = cited from earlier work
[4] = systemically administered (oral or intravenously); cited from earlier work
[5] = Stability to autoclaving (impurity profile, assay, pH, osmolality, appearance); assay type: physicochemical; conditions: autoclaving at 250° F. for 30 minutes in P407
Method: Cold 16% P407 in 50 mM TRIS buffers-saline (pH 7.4 and osmolality of 280 mOsM) was placed in a open container, then ciprofloxacin free base or ciprofloxacin free base hydrate (3.5 moles) was sprinkled in while mixing. Ciprofloxacin suspension was mixed for not less than 10 minutes, then micronized dexamethasone was added slowly to the mixture while mixing. The homogenous suspension was then transferred to 3 mL vials and filled at different volumens (v1=4 g, v2, 3 g and v3 2 g). The glass vial were sealed with West stoppers (fluorotec coated) and Aluminum seals, followed by autoclaving at 250° F. for 30 minutes.
Weigh 58.8 g of the above buffer, chill down, then sprinkle while mixing 11.291 g of poloxamer 407 NF (BASF lot WPNF580C), mix until fully dissolved. Weigh 64.8 g of a the 16% P407 (above solution) into a 100 mL glass bottle containing a 35 mm stir bar then sprinkle 2.2915 g of ciprofloxacin hydrate (Neuland lot CHI071000). Mix for not less than 2 hours at a setting of 11 (IKA stir plate) minutes while cooling then fill 31 two mL vials with approximately 2 g of suspension, stopper them with 13 mm West stoppers and seal them with Al seal, autoclave for 30 minutes @ 250° C.

SMILES: C[C@@H]1C[C@H]2[C@@H]3CCC4=CC(=O)C=C[C@]4(C)[C@@]3(F)[C@@H](O)C[C@]2(C)[C@@]1(O)C(=O)COP(=O)(O)O [DSP, dexamethasone sodium phosphate]
- MDT ([1]; 17% Poloxamer 407 formulation): about 3 h
- MDT ([1]; DSP aqueous solution, micronized DEX suspension in water (no poloxamer)): 0.3 h

SMILES: C[C@H]1C[C@@H]2[C@H]([C@@H](O)C[C@@]3(C)[C@H]2CC[C@]3(O)C(=O)COC(=O)CCC(=O)[O-])[C@@]2(C)C=CC(=O)C=C12.[Na+] [MPS]
- MDT ([1]; 17% Poloxamer 407 formulation): about 3 h
- peak methylprednisolone levels in the perilymph [2]: 6.5 µg/mL

SMILES: C[C@H]1C[C@@H]2[C@H]([C@@H](O)C[C@@]3(C)[C@H]2CC[C@]3(O)C(=O)CO)[C@@]2(C)C=CC(=O)C=C12 [MP]
- decrease of perilymph levels after peak [2]: decreased slowly over 10 days
- peak methylprednisolone levels in the perilymph [2]: 19.2 µg/mL

SMILES: O=P(O)(O)C(O)(Cn1ccnc1)P(=O)(O)O [Zoledronate]
- in vitro mean dissolution time (MDT) ([1]; 16% P407 formulation, FIG. 6): 2 h
- amount reaching the perilymph in the inner ear and/or otic bone structure [4]: about 0.1 ng/day

SMILES: CN(C)CCC=C1c2ccccc2CCc2ccccc21 [amitriptyline]
- water solubility [3]: greater than 100 mg/mL

SMILES: Cc1cccc(CN2CCN(C(c3ccccc3)c3ccc(Cl)cc3)CC2)c1 (stereo not shown) [meclizine]
- solubility in water [3]: insoluble in water

SMILES: O=P(O)(O)C(O)(Cc1cccnc1)P(=O)(O)O [rosidronate]
- amount reaching the perilymph in the inner ear and/or otic bone structure [4]: about 0.6 ng/day

Continued, in another order:

- solubility (physchem): ~190 µg/mL (≈ 863 µM)
SMILES: O=C1c2ccccc2-c2n[nH]c3cccc1c23 [SP600125, anthra[1,9-cd]pyrazol-6(2H)-one]
- reported water solubility [3]: 11 µg/mL
- LogD (7.4) ([3]; pH 7.4): 3.2

- change observed after autoclaving ([5]; hydrate): minimal growth or recrystallization
SMILES: O=C(O)c1cn(C2CC2)c2cc(N3CCNCC3)c(F)cc2c1=O [ciprofloxacin free base hydrate, ciprofloxacin hydrate]

- change observed after autoclaving [5]: appreciable particle size increase
SMILES: O=C(O)c1cn(C2CC2)c2cc(N3CCNCC3)c(F)cc2c1=O [ciprofloxacin free base, ciprofloxacin]
